The term viscosity denotes the resistance of a fluid to flow. Broadly, the mass density is the mass of a sample divided by its volume.

SMILES strings stand for the structures. Numbers after ± are expanded uncertainties.

The conditions of the data set: 101.33 kPa, Liquid; for viscosity: Capillary tube (Ostwald / Ubbelohde) method; for mass density: Vibrating tube method.

In the case of `C1CCCCC1` [cyclohexane], under “293.15 K”, the viscosity was 0.978 ± 0.0084 mPa·s and the mass density is on record as 778.7 ± 0.3 kg/m3. In addition, for the setting “298.15 K”, the viscosity worked out at 0.8931 ± 0.0079 mPa·s and the mass density amounted to 773.9 ± 0.3 kg/m3.
The corresponding values for `CCc1ccccc1` [ethylbenzene] are 0.6735 ± 0.0066 mPa·s, 867.1 ± 0.6 kg/m3, 0.6318 ± 0.0064 mPa·s and 862.7 ± 0.6 kg/m3.
Regarding `CCCCCCC` [heptane], under “293.15 K”, the viscosity turned out to be 0.412 ± 0.0053 mPa·s and the mass density was 684 ± 0.6 kg/m3. Also, under “298.15 K”, the viscosity stood at 0.3895 ± 0.0052 mPa·s and the mass density is on record as 679.7 ± 0.6 kg/m3.
In the same order, the values of `CCCCCCCC` [octane] are 0.5433 ± 0.0059 mPa·s, 702.5 ± 0.6 kg/m3, 0.5108 ± 0.0057 mPa·s and 698.5 ± 0.6 kg/m3.
As for `Cc1ccccc1` [toluene], for the setting “293.15 K”, the viscosity was 0.5891 ± 0.0061 mPa·s and the mass density was found to be 866.7 ± 0.6 kg/m3. For the same compound, where the note is “298.15 K”, the viscosity came to 0.5528 ± 0.006 mPa·s and the mass density is listed as 862 ± 0.6 kg/m3.

The record behind these values is the NIST ThermoML archive (doi:10.1007/s10765-014-1759-1).
